Assay results reported in US8013006B2.
Where two headings read alike, the source gives them in different places.

Legend:
HCV replicon = experiment: microbe, parasite or virus in culture; type: cell-based
wild-type poliovirus = type: cell-based; settings: Hela cells, MOI 0.1, one day; for WT-PV CPE (1 μM)*: 1 μM compound; for WT-PV CPE (10 μM)*: 10 μM compound; for WT-PV CPE (100 μM) *: 100 μM compound
[1] = system: cap-dependent translation; experiment: Western blot of Fluc reporter protein in pLuc cells; type: cell-based, human; settings: 20 hours
[2] = Replicon IC50 values are determined by firefly luciferase signal, bicistronic replicon, 2 days, read-out: Replicon IC5Os
[3] = Hepatitis C virus, 48 h, read-out: Replicon IC5Os μM

Row | SMILES | IC50 (HCV replicon; [3]) | melting point | other results
1 | COc1ccc(-n2cc(C#N)c3ccc(OC)cc32)cc1 [Compound 4] |  |  | IC50 (HCV replicon; [2]): > 2 µM; WT-PV CPE (1 μM)* (wild-type poliovirus): 1; WT-PV CPE (10 μM)* (wild-type poliovirus): 2; WT-PV CPE (100 μM) * (wild-type poliovirus): 3
2 | CCn1cc(C#N)c2ccc(OC(C)C)cc21 [Compound 10] |  |  | IC50 (HCV replicon; [2]): > 2 µM; WT-PV CPE (1 μM)* (wild-type poliovirus): 2; WT-PV CPE (10 μM)* (wild-type poliovirus): 2; WT-PV CPE (100 μM) * (wild-type poliovirus): 3
3 | CCn1c(-c2ccc(OC)cc2)c(C#N)c2ccc(OC)cc21 [Compound 19] |  |  | IC50 (HCV replicon; [2]): > 2 µM; WT-PV CPE (1 μM)* (wild-type poliovirus): 1; WT-PV CPE (10 μM)* (wild-type poliovirus): 2; WT-PV CPE (100 μM) * (wild-type poliovirus): 3
4 | COc1ccc2c(C#N)c(C)n(-c3ccc4c(c3)OCO4)c2c1 [Compound 24] |  |  | IC50 (HCV replicon; [2]): 0.5 to 2 µM; WT-PV CPE (1 μM)* (wild-type poliovirus): 2; WT-PV CPE (10 μM)* (wild-type poliovirus): 2; WT-PV CPE (100 μM) * (wild-type poliovirus): 3
5 | CCn1c(-c2ccc(NC(=O)OC)cc2)c(C#N)c2cc(OC)ccc21 [Compound 792] | < 0.5 µM | 182 to 185 °C | 
6 | CCOC(=O)Nc1ccc(-c2c(C#N)c3cc(OC)ccc3n2CC)cc1 [Compound 793] | < 0.5 µM | 154 to 155 °C | 
7 | CCCOC(=O)Nc1ccc(-c2c(C#N)c3cc(OC)ccc3n2CC)cc1 [Compound 794] | < 0.5 µM | 149 to 151 °C | 
8 | CCn1c(-c2ccc(NC(=O)OC(C)C)cc2)c(C#N)c2cc(OC)ccc21 [Compound 795] | < 0.5 µM | 183 to 185 °C | 
9 | CCn1c(-c2ccc(NC(=O)C3CCC3)cc2)c(C#N)c2ccc(OC)cc21 [Compound 801] | < 0.5 µM | 199 to 219 °C | 
10 | CCn1c(-c2ccc(NC(=O)Cc3ccccc3)cc2)c(C#N)c2ccc(OC)cc21 [Compound 802] | 0.5 to 2 µM | 196 to 198 °C | 
11 | CCn1c(-c2ccc(N3CCCC3=O)cc2)c(C#N)c2ccc(OC(F)F)cc21 [Compound 807] | < 0.5 µM | 171 to 172 °C | 
12 | C=CCNC(=O)Nc1cccc(-c2c(C#N)c3ccc(OC)cc3n2Cc2ccccc2)c1 [Compound 818] | < 0.5 µM | 158 to 159 °C | 
13 | CC(C)OC(=O)Nc1ccc(-c2c(C#N)c3ccc(OC(F)F)cc3n2C2CCC2)cc1 [Compound 822] | 0.5 to 2 µM | 144 to 145 °C | 
14 | CCCn1c(-c2ccc(NS(=O)(=O)C3CC3)cc2)c(C#N)c2ccc(OC(F)F)cc21 [Compound 827] | < 0.5 µM | 189 to 191 °C | 
15 | CCOc1ccc(-c2c(C#N)c3ccc(NS(C)(=O)=O)cc3n2CC)cc1 [Compound 834] | 0.5 to 2 µM | 179 to 180 °C | 
16 | CCCn1c(-c2ccc(NC(=O)NCCc3ccccc3)cc2)c(C#N)c2ccc(OC)cc21 [Compound 848] | 0.5 to 2 µM | 193 to 194 °C | 
17 | CCCn1c(-c2ccc(NS(=O)(=O)CCCCl)cc2)c(C#N)c2ccc(OC)cc21 [Compound 850] | 0.5 to 2 µM | 179 to 180 °C | 
18 | CCCn1c(-c2ccc(NS(=O)(=O)C3CC3)cc2)c(C#N)c2ccc(OC)cc21 [Compound 851] | 0.5 to 2 µM | 186 to 187 °C | 
19 | CCn1c(-c2ccc(NC(=O)C3CCC3)cc2)c(C#N)c2cc(OC)ccc21 [Compound 859] | 0.5 to 2 µM | 191 to 192 °C | 
20 | COc1ccc(C[C@H](N)C(=O)N[C@H]2[C@@H](O)[C@H](n3cnc4c(N(C)C)ncnc43)O[C@@H]2CO)cc1 [puromycin] |  |  | luciferase reporter protein level (cap-dependent), Western blot [1]: inhibited
